Entries after “also recorded” stand apart in the source; their conditions may differ. Non-standard residues stand in square brackets, D forms with d. No end group written: not given here. Aze = O=C(O)[C@@H]1CCN1

The source of these data is US20040142379A1, “Affinity fishing for ligands and proteins receptors” (Carlsberg Research Laboratory, priority 2003, published 2004).

For experiment [1], the system named is Normal Myocytes (basal) protein mixture. The experiment can be described thus: Solid phase screening of Library 1 with labeled myocyte proteins; on-bead affinity isolation and peptide mass fingerprinting of bound protein (basal). Particulars: proteins bound to resin-bound Library 1 ligand, primarily present in basal cells; LA low abundance, M transmembrane or partially embedded, MA membrane associated; parentheses = possible complexes. Type of experiment: binding, neonatal Wistar rats. On the procedure: (§1) Myocytes were prepared from 1 to 5 day old neonatal Wistar rats (University of Copenhagen) according to literature procedure described in Busk et al., 2002, Cardiovasc. Res., 56: 64-75 and plated into eight P10 culture plates at 6 million cells/plate. Cells were grown at 37° C. and 5% CO2 humidity in serum free Modified Eagle Media (MEM). After 2 days, the adherent cells were washed at room temperature with serum free MEM (2×) and fresh MEM was added. To four of the plates, 10 μM phenylephrine (PE) was also added. Cells were grown for two more days and then harvested as described below.
(§2) Protein was extracted from myocytes prepared as described above for Example 9, using a new procedure modified from existing protocols, primarily: Arnott, et al., 1998, Anal. Biochem. 258: 1-18. The media was removed from plates and adhered cells were treated for 10 minutes with ice cold phosphate buffer (0.25 mL, 10 mM, pH 7.5, augmented with 0.15 M NaCl 60 mM Benzamidine HCl, 5 mM EDTA, 10 μg/mL E-64, 10 μg/mL Leupeptin, 10 μg/mL Pepstatin A, and 1 mM PMSF). The cells were scraped off the plates and then lysed (on ice) in a sonicator (2×) using 10 seconds off/10 seconds on cycles.
(§3) The resulting suspension was augmented with CHAPS, DTT, and urea to a final concentration of CHAPS (1% w/v), DTT (5 mM), and urea (8 M). After 10-15 minutes on ice, the solution was centrifuged for 10 minutes at 15,000 rpm at 4° C. The supernatant was removed and protein content quantified using the NanoOrange Protein test (Molecular Probes, Eugene, Oreg.): Total protein recovered: 70.5 μg for PE-treated cells and 60 μg for basal cells.
(§4) Fluorescent dye Oregon Green 514 (OR) (Molecular Probes) was used to label the healthy/basal cells while Rhodamine Red (RR) (Molecular Probes) was used to label the PE-treated cells. The labeling procedures were carried out according to the manufacturer's protocol. The protein solutions (0.25 mL, 50.4 μg for PE cells and 0.25 mL, 42.8 μg for basal cells) were dialyzed against a solution of 10 mM phosphate buffer, 0.15 M NaCl, pH 7.5 and then 1 M NaHCO3 (0.025 mL) added to a final pH of 8.5. 10 μL of dye in dry DMF (10 mg/mL) was added and the sample stirred at room temperature for 2 hours. The protein solution was dialyzed extensively against 10 mM phosphate buffer, 0.15 M NaCl, pH 7.5, to remove excess dye.
(§5) Ligand library 1 (200 mg), prepared as described for Example 5, was transferred to a syringe fitted with a stop-valve and the ligand-beads were washed for 10 minutes (3×) with 10 mM phosphate buffer, pH 6.8, supplemented with 0.15 M NaCl, 1 mM Ca^2+, 1 mM Zn^2+, 1 mM Mn^2+, 1 mM Cu^2+, and 1 mM Mg^2+ (3 mL). The ligand-beads were treated with a 1% BSA solution for 30 minutes, then washed with buffer (1×). A mixture of labeled myocyte proteins, including both PE-induced protein (138 μL, 40 μg) and basal protein (167 μL, 40 μg) obtained as described above for Example 11, was prepared in 1.2 mL buffer, and added to the ligand library in the syringe. The proteins and ligand library were incubated at room temperature for 16 hours. The library was then washed with buffer for 5 minutes then with water for 3×5 minutes. The library was examined under a fluorescence microscope and brightly fluorescent red, green, and yellow beads (yellow indicative of both dyes red and green binding; the majority of the beads) were present, as well as unlabelled beads. The fluorescent beads were parted and retained for analysis.
(§6) The fluorescent ligand library beads containing bound myocyte protein obtained as described in Example 15, were sorted using a COPAS (250) NF Bead Sorter (Union Biometrica, Somerville, Mass.). Beads emitting fluorescence of only one color contain proteins from one physical state, proteins expressed only in the PE-induced hypertrophic state (red) or proteins expressed only in the basal state (green).

Experiment [2] deals with Phenylephrine Treated (Hyperthrophic) Myocytes protein mixture. The experiment can be described thus: Solid phase screening of Library 1 with labeled myocyte proteins; on-bead affinity isolation and peptide mass fingerprinting of bound protein (PE-induced). Conditions: proteins bound to resin-bound Library 1 ligand, primarily present in PE-treated hypertrophied cells; LA low abundance, M transmembrane or partially embedded, MA membrane associated. Type of experiment: binding, neonatal Wistar rats. On the procedure:
as §1, §2, §3, §4, §5, §6

Another experiment has as its system Myocytes. As to the kind of experiment: Myocyte culture with phenylephrine (in vitro model of hypertrophy). Type of experiment: cell-based, neonatal Wistar rats. Particulars: 10 μM phenylephrine, grown two more days, serum free MEM. On the procedure: as §1
Using the procedures described above for Examples 1-5, the ligand Library 1 (containing unnatural amino acids) as described for Example 5, myocyte proteins prepared and labeled as described for Examples 9 and 11, screening as described for Example 15, sorting and identifying as described for Examples 18 to 21, digestion and protein identification as described for Examples 25-31, previously unknown, specific, differential ligand-protein binding pairs were identified for the normal (basal) myocyte protein mixtures and the phenylephrine (PE)-treated myocyte proteins screened against the ligands of Library 1. Phenylephrine was used to provide an in vitro model of hypertrophy, for example, cardiac hypertrophy (Arnott et al., 1998, Anal. Biochem., 1:1-18).

Experiment [3] has as its system isoleucine tRNA synthetase. Particulars: approved antibiotic; Merck Manual; cited from earlier work.
Another experiment has as its target T1, Phosphomannose isomerase (Candida albicans, UniProt P34948).
T1 sequence (P34948 1-441): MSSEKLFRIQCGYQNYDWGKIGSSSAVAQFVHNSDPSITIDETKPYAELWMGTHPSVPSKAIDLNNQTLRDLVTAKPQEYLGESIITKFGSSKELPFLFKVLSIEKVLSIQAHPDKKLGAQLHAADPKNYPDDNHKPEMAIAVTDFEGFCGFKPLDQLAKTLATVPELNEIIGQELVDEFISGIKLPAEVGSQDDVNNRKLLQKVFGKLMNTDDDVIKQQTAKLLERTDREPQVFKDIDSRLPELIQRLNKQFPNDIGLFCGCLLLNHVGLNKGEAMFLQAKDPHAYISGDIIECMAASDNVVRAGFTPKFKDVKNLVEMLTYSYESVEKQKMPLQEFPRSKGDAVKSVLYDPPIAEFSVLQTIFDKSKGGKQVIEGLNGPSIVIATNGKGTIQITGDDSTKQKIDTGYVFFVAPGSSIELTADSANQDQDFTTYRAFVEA
Conditions: in Candida; Wells et al, 1996; cited from earlier work.

As for Pip-Pal-Pal-Phe-Pya-Pip, the “Identified Protein(s)” value in experiment [1] is reported as “Myosin light chain kinase (LA, MA); (Tyrosine phosphatase (LA, M);; also recorded: ATP Synthase component (M)) Gluthathione S-transferase; Cytochrome; also recorded: P450 (M); Ribosomal proteins (60s); SPTR (M))”.
In the case of Pal-Abi-Gly-Gly-Abi-His, in experiment [2], the “Identified Protein(s)” value was “Ribosomal protein (60s + 40s); Low density lipoprotein receptor”.
As for Phe-Ppy-Acc-Ala-Ppy-Hpy, in experiment [1], the “Identified Protein(s)” value is “Hypothetical proteins; Troponin T; (Phospholipase C (MA);; also recorded: Phosphatidylcholine sterol acyl transferase)”.
With Abi-Thr-Hyp-Hyp-His-?-, in experiment [2], the “Identified Protein(s)” value is recorded as “Phosphofructokinase; Selenium binding protein; (Serine arginine rich; also recorded: protein kinase (LA); Guanylate kinase (LA), Protein tyrosine kinase; also recorded: (LA)); Alkaline phosphatase; Symporter (M); SPTR (M); WAP-protein;; also recorded: GTP Hydrolase, Actin filament”.
Take Pya-Gua-Pip-Acc-Phe-Pip: the “Identified Protein(s)” value in experiment [1] is given as “NADH dehydrogenase; ATP binding component (M); Myosin; Histone; also recorded: associated proteins (M)”.
For the compound `CNC[C@H](O)c1cccc(O)c1` [PE, phenylephrine], the “cell size at time of harvest” value in the experiment on Myocytes was “significantly enlarged”.
Consider `C/C(=C\C(=O)OCCCCCCCCC(=O)O)C[C@@H]1OC[C@H](C[C@@H]2O[C@H]2[C@@H](C)[C@H](C)O)[C@@H](O)[C@H]1O` [Mupirocin], for which the enzyme inhibition entry in experiment [3] is given as “inhibits”.
With Pya-Hyp-Hyp-Phe-Acm-Tyr, in experiment [1], the “Identified Protein(s)” value was “Troponin T; Growth hormone receptor (M); Protein kinase (LA)”.
With Phe-Abi-Pal-Hyp-Thr-Hyp, the “Identified Protein(s)” value in experiment [2] is “Zinc finger associated protein; Ribosomal proteins; Protein phosphatase and (LA)”.
Same read-out and setting: then Phe-Gua-Pal-Tyr-Gua-Tyr, with “Glucose-6-Phosphatase; Succinate dehydrogenase; ARL-interacting; also recorded: protein (M); SPTR (M), Nucleic acid binding protein”; and Pya-Gua-Abi-Asp-Abi-Tyr, with “SPTR (M); Ribosomal proteins (60s); (Calcium channel (M); Slo channel; also recorded: protein isoform (M); Potassium conductance calcium activated channel; also recorded: (M); Symporter (M;) NADH dehydrogenase; Malate dehydrogenase; N-; also recorded: Acetyl transferase; Mitochondrial associated protein; G-protein receptor; also recorded: used for signaling (LA, M)”.
Turning to F[Aze]GHG[Aze], in experiment [1], the “Identified Protein(s)” value was “Hypothetical proteins; Cysteine and tyrosine rich proteins of unknown; also recorded: function (M); (Mitochondrial ATP synthase; Ribosomal proteins (L; also recorded: series);) Serine protease; SPTR”.
Regarding Abi-Phe-Abi-Phe-Che-Tyr, the “Identified Protein(s)” value in experiment [2] is on record as “Cathepsin E; Ribosomal proteins, Actin binding protein, Amino acid; also recorded: transferase”.
As for `Nc1ccc(S(=O)(=O)Nc2ncccn2)cc1` [sulfadiazene], the enzyme inhibition entry on Phosphomannose isomerase is on record as “inhibited”.
On to Phe-Thr-Pya-Pip-Asp-His, for which the “Identified Protein(s)” value in experiment [1] was “(Sodium channel (M); Chloride channel (M)) Troponin; Ribosomal; also recorded: proteins L26; Serine hydroxy methyl transferase; Zn Finger protein (MA);; also recorded: Adherin aminotransferase (M); (Gluthathione transferase; Gluthathione; also recorded: peroxidase;)”.
